The results in this text go back to patent US20150079029A1, “METHODS AND COMPOSITIONS FOR INHIBITING ANGIOGENESIS” (Oncology Research International Limited, priority 2006, published 2015).

The experiment has as its system angiogenesis induced by bFGF in angiochambers. Put plainly: AngioChamber assay: bFGF-induced fibrous capsule formation and haemoglobin (Drabkin) blood content. The format is in vivo, FvB mice. To be noted: i.p. once daily for 5 days, dioscin 10, deltonin 10, trillin 60, prosapogenin A 20, sorafenib 60 mg/kg. The text has this:
The AngioChamber™ assay utilises the normal physiological process of wound healing, which promotes the formation of a fibrous capsule around an implanted chamber (Wood et al, (2000) Cancer Research, 60(8):2178-89). The inclusion of bFGF in the chamber induces blood vessel development in the fibrous capsule. The assay therefore assesses the efficacy of treatments by gauging their effect both on the fibrous capsule formation, measured by the wet weight of the capsule at the termination of the study and by determination of blood vessel supply to the chamber by assaying for haemoglobin content. The haemoglobin content of the fibrous capsule is a measure of neovascularisation, which is assayed by the Drabkin Assay.
The angiochambers were porous tissue chambers made of perfluoro-alkoxy-Teflon and filled with 0.8% agar containing 20 IU/mL heparin, with or without 1 μg/mL human bFGF. Both ends of the chamber were sealed with removable caps of the same material. The chambers were filled under sterile conditions with 0.8% agar containing 20 IU/mL heparin, with or without 1 μg/mL human bFGF. The agarose solution was maintained at 37° C. prior to filling the chambers.
70 female FvB mice were microchipped, weighed and randomised based on body weight into 7 groups with 10 mice per group. For implantation, the mice were anaesthetised by halothane inhalation. Approximately 150 μL sterile filtered air was injected subcutaneously in the back of each mouse, between the shoulder blades, resulting in an air pocket in which a small incision was made and the chamber inserted. The wound was closed with two 1.4 mm wound clips.
The treatments, which were all formulated in NMP:PEG300:Water (1:9:10, v/v) and administered daily by intraperitoneal injection, were as given in the Table 7:
Treatment was started when all the animals had recovered fully from anaesthesia, and continued for 5 days. On Day 6, the vascularised fibrous chambers were removed and the wet weight recorded for each implant. The chamber from each mouse was then snap frozen with liquid nitrogen and stored at −20° C. until assessed for haemoglobin content.
The fibrous capsule samples were thawed and kept on ice during the procedure. Sterile water was added to each thawed sample, and the sample homogenised with an UltraTourax at high speed. To avoid cross-contamination, the UltraTourax was flushed for 30 seconds with 5 mL distilled water after homogenising each sample. The homogenate was transferred into 2 mL Eppendorf tubes and stored on ice. The Eppendorf tubes were centrifuged at 4° C. and high speed (14,000 relative centrifugal force (RCF)) for 60 min. 1.0-1.5 mL of the intermediate aqueous solution (homogenate), between the pellet and the fat layer, was then transferred to fresh labelled 1.5 mL Eppendorf tubes and stored on ice. 50 μL of each homogenate was transferred into separate wells of a 96-well plate. 50 μL of water was transferred into 2 wells as blanks. 50 μL of Drabkin's reagent was then added to each well and mixed. After 15 min incubation at room temperature, the absorbance of each sample at 540 nm was measured and the volume of blood for each sample calculated from a standard curve.
The Percent Induction for a treatment is the difference in blood content between the treatment (+bFGF) and the vehicle alone (no bFGF), divided by the difference in blood content between the vehicle with bFGF and the vehicle alone (no bFGF), expressed as a percentage.

In the case of `C[C@@H]1CC[C@@]2(OC1)O[C@H]1C[C@H]3[C@@H]4CC=C5C[C@@H](O[C@@H]6O[C@H](CO)[C@@H](O[C@@H]7O[C@H](CO)[C@@H](O)[C@H](O)[C@H]7O)[C@H](O)[C@H]6O[C@@H]6O[C@@H](C)[C@H](O)[C@@H](O)[C@H]6O)CC[C@]5(C)[C@H]4CC[C@]3(C)[C@H]1[C@@H]2C` [Deltonin, diosgenin Rha2, [Glc4], Glc], the “Percent Induction (blood content relative to vehicle + bFGF minus vehicle alone)” value is on record as 20%. Where the note is “Drabkin assay”, the “Average blood content (from haemoglobin content)” value was 0.79 µL. In addition, the Average chamber weight (wet weight on Day 6) was 0.126 g.
